Earlier results as cited in paper PMC3807987 (Pharmacognosy Research, 2013).
Where two headings read alike, the source gives them in different places.

Tested on: CYP2D6

## CN[C@H]1CC[C@@H](c2ccc(Cl)c(Cl)c2)c2ccccc21 [Sertraline]
Dose of 50 mg
  CYP2D6 inhibition strength: mild inhibitor
Dose of 200 mg
  CYP2D6 inhibition strength: potent inhibitor
